# Measured values published in patent publication EP4656049A1, “A METHOD OF CONTROLLING INSECT PESTS” (UPL Mauritius Limited, priority 2024, dated 2025).
# What was measured:
# Type in all cases: in vivo
# Bactrocera oleae adults = assay: Lab trial in plastic containers, flies dipped in test solution; conditions: 75 ml/L
# Experimental: Composition used for insect control: Suspension of Beauveria bassiana CNCM I-2960 spores prepared in Tween 80. Total CFU count = 9.5 x 10^7 CFU/ml Trial method: Lab trial in plastic containers, 5 replicates, 10 adults /replicate Flies dipped in test solution Incubation in climatic room at +25°C Assessment of mortality percentage of Bactrocera oleae adults at 10DAT. DAT = Days after Treatment Comparative control: Lambda-cyhalothrin Table 7: Efficacy of Beauveria bassiana CNCM I-2960 on Bactrocera oleae adults
# Empoasca vitis adults = assay: Lab trial in Petri dishes, leaf dipped in suspension; conditions: 75 ml/L
# Experimental: Composition used for insect control: Suspension of Beauveria bassiana CNCM I-2960 spores prepared in Tween 80. Total CFU count = 8.2 x 10^7 CFU/ml Suspension of Beauveria bassiana CNCM I-2961 spores prepared in Tween 80. Total CFU count = 1.1 x 10^8 CFU/ml Trial method: Lab trial in Petri dishes, 5 replicates, 10 nymphs/replicate Leaf dipped in prepared suspension of treatment, let dried and set up on agar agar Incubation in climatic room at +20 C, dead adults removed and incubated for sporulation on cadaver: assessment at 15 DAA Assessment of mortality percentage of Empoasca vitis adults at 7 DAA, 11DAA. Comparative control: Lambda cyhalothrin Table 4: Efficacy of Beauveria bassiana CNCM I-2961 and Beauveria bassiana CNCM I-2960 on Empoasca vitis adults
# [1] = system: Empoasca vitis L2/L3 larvae; assay: as above; conditions: 75 ml/L
# Experimental: Composition used for insect control: Suspension of Beauveria bassiana CNCM I-2961 spores prepared in Tween 80. Total CFU count = 1.0 x 10^8 CFU/ml Trial method: Lab trial in Petri dishes, 10 replicates, 5 L2&L3 larvae /replicate Leaf dipped in prepared suspension of treatment, let dried and set up on agar agar Incubation in climatic room at +20°C, dead adults removed and incubated for sporulation on cadaver: assessment at 18 DAA Assessment of mortality percentage of Empoasca vitis L2/L3 larvae at 7 DAA, 10DAA. Comparative control: Lambda cyhalothrin Table 5: Efficacy of Beauveria bassiana CNCM I-2961 on Empoasca vitis L2/L3 larvae
# Halyomorpha halys eggs = assay: Lab trial in Petri dishes, suspension sprayed on eggs; conditions: 0.5 ml/L
# Experimental: Composition used for insect control: Suspension of Beauveria bassiana CNCM I-2960 spores prepared in Tween 80. Total CFU count = 1 x 10^6 CFU/ml, 1 x 10^7 CFU/ml and 1 x 10^8 CFU/ml Suspension of Beauveria bassiana CNCM I-2961 spores prepared in Tween 80. Total CFU count = 1 x 10^6 CFU/ml, 1 x 10^7 CFU/ml and 1 x 10^8 CFU/ml Trial method: Lab trial in Petri dishes, 5 replicates, 10 nymphs/replicate Suspension sprayed on eggs with equivalent volume of 1000 L/ha Incubation in climatic room at +25°C Assessment of mortality percentage of Halyomorpha halys Nymphs from treated eggs at 6 DAH, 9DAH, 13 DAH and 17 DAH. DAH = Days after hatching Comparative control: Acetamiprid Table 3: Efficacy of Beauveria bassiana CNCM-2961 and Beauveria bassiana CNCM I-2960 on Halyomorpha halys nymphs from treated eggs
# Halyomorpha halys Nymphs = assay: Lab trial in Petri dishes, suspension applied on nymphs + spray on beans; conditions: 0.5 ml/L
# Experimental: Composition used for insect control: Suspension of Beauveria bassiana CNCM I-2960 spores prepared in Tween 80. Total CFU count = 1 x 10^8 CFU/ml Trial method: Lab trial in Petri dishes, 10 replicates, 5 nymphs/replicate Suspension applied on nymphs + spray on beans Incubation in climatic room at +25°C Assessment of mortality percentage of Halyomorpha halys Nymphs at 10 DAA Comparative control: Acetamiprid Table 2: Efficacy of Beauveria bassiana CNCM I-2960 on Halyomorpha halys Nymphs
# [2] = system: Dysaphis plantaginea adults; assay: Lab trial in Petri dishes, leaf disc dipped in suspension; conditions: 0.14 kg/ha
# Experimental: Composition used for insect control: Suspension of Beauveria bassiana CNCM I-2961 spores prepared in Tween 80. Total CFU count = 1.2 x 10^8 CFU/ml Trial method: Lab trial in Petri dishes, 10 replicates, 5 adults/replicate Leaf disc dipped in prepared suspension of treatment, let dried and set up on agar agar Incubation in climatic room at +21°C, dead adults removed and incubated for sporulation on cadaver: assessment at 17 DAA Assessment of mortality percentage of Dysaphis plantaginea adults at 8 DAA, 10 DAA DAA = Days after application Comparative control: Flonicamid Table 1: Efficacy of Beauveria bassiana CNCM I-2961 on Dysaphis plantaginea adults
smiles,measurement,setting,value
CC1(C)[C@H](C(=O)O[C@H](C#N)c2cccc(Oc3ccccc3)c2)[C@@H]1/C=C(\Cl)C(F)(F)F (racemic) [Lambda cyhalothrin],Mortality percentage of Bactrocera oleae adults at 10 DAA,Bactrocera oleae adults,100%
same,Mortality percentage of Empoasca vitis adults at 7 DAA,Empoasca vitis adults; 7 DAA,83%
same,Mortality percentage of Empoasca vitis adults at 11 DAA,Empoasca vitis adults; 11 DAA,100%
same,Mortality percentage of Empoasca vitis larvae at 7 DAA,[1]; 7 DAA,65%
same,Mortality percentage of Empoasca vitis larvae at 10 DAA,[1]; 10 DAA,91%
C/C(=N\C#N)N(C)Cc1ccc(Cl)nc1 [Acetamiprid],Mortality percentage of Halyomorpha halys nymphs from treated eggs at 6 DAH,Halyomorpha halys eggs; 6 DAH,0%
same,Mortality percentage of Halyomorpha halys nymphs from treated eggs at 9 DAH,Halyomorpha halys eggs; 9 DAH,7%
same,Mortality percentage of Halyomorpha halys nymphs from treated eggs at 13 DAH,Halyomorpha halys eggs; 13 DAH,12%
same,Mortality percentage of Halyomorpha halys nymphs from treated eggs at 17 DAH,Halyomorpha halys eggs; 17 DAH,22%
same,Mortality percentage of Halyomorpha halys Nymphs at 10 DAA,Halyomorpha halys Nymphs,100%
N#CCNC(=O)c1cnccc1C(F)(F)F [Flonicamid],Mortality percentage of Dysaphis plantaginea adults at 8 DAA,[2]; 8 DAA,100%
same,Mortality percentage of Dysaphis plantaginea adults at 10 DAA,[2]; 10 DAA,100%
